Measured values reported in patent US11865086B2, “Cinnamaldehyde derivative compounds and methods of use for cinnamaldehyde derivative compounds nicotine cessation” (Pacific University, priority 2018, dated 2024).
Entries after “also recorded” stand apart in the source; their conditions may differ. Each block holds one molecule with its values, some of them ahead of it.

Tests used:
[1] = obtained from PubChem and ChemSpider; cited from earlier work
[2] = target: T1, CYP2A6 (Homo sapiens, UniProt P11509, K28S/Q25K/Q26K/R27T/W24A); assay: biochemical
T1 sequence (P11509 with tags, fused parts or gaps limits assumed): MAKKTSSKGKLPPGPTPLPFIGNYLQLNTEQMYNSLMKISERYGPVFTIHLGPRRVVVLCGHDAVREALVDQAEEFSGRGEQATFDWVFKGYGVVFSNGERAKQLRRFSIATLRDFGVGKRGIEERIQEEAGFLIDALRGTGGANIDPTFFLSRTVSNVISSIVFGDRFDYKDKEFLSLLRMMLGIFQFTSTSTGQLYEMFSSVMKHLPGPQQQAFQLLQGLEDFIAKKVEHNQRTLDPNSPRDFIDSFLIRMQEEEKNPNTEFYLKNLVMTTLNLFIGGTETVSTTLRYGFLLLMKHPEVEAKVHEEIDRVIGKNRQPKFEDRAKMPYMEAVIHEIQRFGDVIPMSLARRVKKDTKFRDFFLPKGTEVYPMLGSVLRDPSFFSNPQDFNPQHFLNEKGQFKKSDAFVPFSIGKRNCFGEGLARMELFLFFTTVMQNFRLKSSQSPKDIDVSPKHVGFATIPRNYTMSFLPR
Experimental: (§1) Spectral binding studies were conducted using purified heterologously expressed CYP2A6 in Escherichia coli. […] Absorbance changes (A386-A418) may be plotted against added ligand concentrations in order to determine dissociation constants.
(§2) In more detail, the CYP2A6 enzyme may be heterologously expressed in Escherichia coli and purified. The expression vector, pKK2A6dH may be used to express the enzyme. The vector contains a cDNA sequence that codes for human CYP2A6 with a deletion of the N-terminal transmembrane sequence, an alteration of several residues at the modified N-terminus to increase expression, and four histidine residues added at the C-terminus to aid in purification. […] Expression from the vector may be induced with the addition of IPTG to bacterial cultures. δ-Aminolevulinic acid is added during expression to supplement heme biosynthesis. The enzyme may be purified following previously reported protocols. Briefly, following cell disruption, the solubilized enzyme may be purified using Ni^2+-affinity chromatography and cation-exchange (CM sepharose) chromatography, which may lead to protein of high purity and P450 content.

[3] = target: T2, CYP2A6 (Homo sapiens, UniProt P11509); assay: in vitro
T2 sequence (P11509 1-494): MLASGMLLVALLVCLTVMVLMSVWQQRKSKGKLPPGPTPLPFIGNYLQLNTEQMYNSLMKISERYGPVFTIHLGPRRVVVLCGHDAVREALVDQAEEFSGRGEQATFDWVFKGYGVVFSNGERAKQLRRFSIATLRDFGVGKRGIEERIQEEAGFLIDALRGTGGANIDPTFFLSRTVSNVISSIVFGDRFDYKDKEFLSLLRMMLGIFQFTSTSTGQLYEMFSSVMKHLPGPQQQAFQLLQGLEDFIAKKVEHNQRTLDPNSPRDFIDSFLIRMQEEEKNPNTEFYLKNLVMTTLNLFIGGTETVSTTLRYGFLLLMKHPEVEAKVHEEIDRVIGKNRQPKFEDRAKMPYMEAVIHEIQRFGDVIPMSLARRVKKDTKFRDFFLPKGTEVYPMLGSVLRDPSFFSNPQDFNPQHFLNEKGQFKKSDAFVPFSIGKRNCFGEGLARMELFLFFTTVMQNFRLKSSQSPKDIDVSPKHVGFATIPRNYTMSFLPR
Source text: (§3) Since this type of inhibition also requires that the inhibitor is initially metabolized by the target enzyme, MBIs may be identified by evaluating the inhibition in the presence and absence of cofactors that are required for activity, such as NADPH for CYPs.

[4] = target: T2, CYP2A6; assay: biochemical
Source text: (§4) A 96-well plate assay and fluorescence spectroscopy may be used to quantify the product, 7-hydroxycoumarin.
Data was fit using GraphPad Prism.

[5] = target: T2, CYP2A6; assay: biochemical; remark: listed apart in the source
Source text: as §3

[6] = target: T2, CYP2A6; assay: Time-dependent inhibition screen, recombinant CYP2A6 system, coumarin hydroxylase readout; conditions: for Fold difference (with respect to CA): kinact/kI relative to t-CA; for time-dependent inhibition of CYP2A6, result in words: with NADPH, 7-hydroxycoumarin formation; for kinact / kinact/kI: Table 5
Source text: as §3

[7] = target: T3, recombinant CYP2A13 (Homo sapiens, UniProt Q16696); assay: Time-dependent inhibition, recombinant CYP2A13 system, coumarin hydroxylase readout; assay type: biochemical
T3 sequence (Q16696 1-494): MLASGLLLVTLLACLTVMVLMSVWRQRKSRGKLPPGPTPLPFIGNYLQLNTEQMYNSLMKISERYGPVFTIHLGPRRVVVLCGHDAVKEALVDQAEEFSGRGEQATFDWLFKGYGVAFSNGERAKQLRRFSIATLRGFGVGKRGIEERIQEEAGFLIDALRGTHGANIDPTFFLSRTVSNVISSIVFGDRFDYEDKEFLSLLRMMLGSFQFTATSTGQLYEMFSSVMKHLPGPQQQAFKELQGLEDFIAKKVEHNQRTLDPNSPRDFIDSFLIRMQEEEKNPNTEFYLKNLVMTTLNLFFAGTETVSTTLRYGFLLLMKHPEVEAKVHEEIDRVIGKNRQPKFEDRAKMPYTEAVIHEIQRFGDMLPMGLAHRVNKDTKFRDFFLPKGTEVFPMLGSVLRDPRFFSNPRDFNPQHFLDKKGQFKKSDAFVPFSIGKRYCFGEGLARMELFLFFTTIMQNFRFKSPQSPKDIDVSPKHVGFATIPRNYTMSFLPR
Source text: The above-discussed approach regarding evaluation of selectivity, potency and inhibition parameters of human CYP2A6 by t-CA and structural analogs thereof may be similarly applied to evaluation of the same parameters with regard to CYP2A13.

[8] = target: T2, CYP2A6; assay: IC50 for inhibition of CYP2A6, coumarin hydroxylase activity (7-hydroxycoumarin fluorescence); conditions: Table 1B, structural analogs of CA
Source text: as §4
Data was fit using GraphPad Prism.

[9] = target: T1, CYP2A6; assay: Spectral ligand binding (KS) to purified CYP2A6 expressed in Escherichia coli; conditions: read-out: Ks
Experimental: as §1, §2

[10] = target: T4, CYP2A6-mediated nicotine metabolism (Homo sapiens, UniProt P11509); assay: Model (Equation 2) predicting change in nicotine AUC from mechanism-based inhibition parameters; conditions: Table 5, predicted nicotine AUC
T4 sequence (P11509 1-494): T2 sequence (P11509 1-494)

[11] = recombinant CYP2A6, probe coumarin

Kd [2]: 7.8 µM | kinact [3, 11]: 0.00407 s⁻¹ | kinact/KI [3, 11]: 86.2 M⁻¹ s⁻¹ | IC50 [4]: 3.9 µM | Ki [5]: 47.2 µM | Fold difference (with respect to CA) [6]: 3.6 | time-dependent inhibition of CYP2A6, result in words [6]: more potent inhibitors than t-CA
SMILES: O=C/C=C/c1c(F)cccc1F [2,6-difluoro-CA, 2,6-difluorocinnamaldehyde]
Log P [1]: 2.3

time-dependent inhibition of CYP2A6, result in words [6]: not to be time-dependent inhibitors
SMILES: O=C/C=C/c1ccccc1O [2-hydroxy-t-CA]

time-dependent inhibition of CYP2A6, result in words [6]: not to be time-dependent inhibitors
SMILES: Cc1ccccc1C=CC=O [2-methyl-CA]

Kd [2]: 47.5 µM | kinact [3, 11]: 0.00372 s⁻¹ | kinact/KI [3, 11]: 267 M⁻¹ s⁻¹ | IC50 [4]: 15.1 µM | Ki [5]: 13.9 µM | Fold difference (with respect to CA) [6]: 11.2 | time-dependent inhibition of CYP2A6, result in words [6]: more potent inhibitors than t-CA | Ki [7]: 30.9 µM | kinact [7]: 0.00203 s⁻¹ | kinact/KI [7]: 67.8 M⁻¹ s⁻¹
SMILES: O=CC=Cc1ccccc1[N+](=O)[O-] [2-nitro-CA, 2-nitrocinnamaldehyde]

kinact [3, 11]: 0.00138 s⁻¹ | kinact/KI [3, 11]: 15.5 M⁻¹ s⁻¹ | IC50 [4]: 410 µM | Ki [5]: 89.6 µM | Fold difference (with respect to CA) [6]: 0.65
SMILES: O=CC=Cc1cccc([N+](=O)[O-])c1 [3-nitro-CA, 3-nitrocinnamaldehyde]

SMILES: O=C/C=C/c1ccc(Br)cc1 [4-bromo-CA]
IC50 [8]: 58.1 µM

SMILES: O=C/C=C/c1ccc(Cl)cc1 [4-chloro-CA]
IC50 [8]: 30.1 µM | Kd [9]: 48.9 µM

SMILES: CCN(CC)c1ccc(/C=C/C=O)cc1 [4-diethylamino-CA]
IC50 [8]: 451 µM

SMILES: CN(C)c1ccc(/C=C/C=O)cc1 [4-dimethylamino-CA]
IC50 [8]: 100 µM

SMILES: O=C/C=C/c1ccc(F)cc1 [4-fluoro-CA]
IC50 [8]: 30.1 µM

kinact [3, 11]: 0.00065 s⁻¹ | kinact/KI [3, 11]: 7 M⁻¹ s⁻¹ | IC50 [4]: 308 µM | Ki [5]: 92.1 µM | Fold difference (with respect to CA) [6]: 0.29
SMILES: O=CC=Cc1ccc([N+](=O)[O-])cc1 [4-nitro-CA, 4-nitrocinnamaldehyde]

SMILES: C/C(C=O)=C\c1ccc(C(C)(C)C)cc1 [4-t-butyl-α-methyl-CA]
IC50 [8]: 348 µM

IC50 [4]: 8 µM
SMILES: ON=CC=Cc1ccccc1 [Cinnamaldehyde oxime]

IC50 [4]: > 2500 µM
SMILES: O=C(O)/C=C/c1ccccc1 [cinnamic acid, reference compound]

SMILES: OC/C=C/c1ccccc1 [cinnamic alcohol, reference compound]
IC50 [4]: 354 ± 4.4 µM

SMILES: N#CC=Cc1ccccc1 [cinnamonitrile]
IC50 [4]: 8.8 µM

SMILES: O=CCCc1ccccc1 [hydro-CA, hydrocinnamaldehyde]
AUC fold increase [10]: 1.71-2.67 | Kd [2]: 44.8 µM | kinact ([3]; recombinant enzyme): 0.00193 s⁻¹ | kinact/KI ([3]; recombinant enzyme): 22.7 M⁻¹ s⁻¹ | IC50 [4]: 48.3 µM | Ki [5]: 85 µM | kinact [6]: .116 min⁻¹ | kinact/kI [6]: 0.001365 | Fold difference (with respect to CA) [6]: 0.96 | time-dependent inhibition of CYP2A6, result in words [6]: not to be time-dependent inhibitors

Kd [2]: 1.6 µM
SMILES: COc1ccccc1C=CC=O [o-methoxycinnamaldehyde, 2-methoxycinnamaldehyde]

kinact [3, 11]: 0.00405 s⁻¹ | kinact/KI [3, 11]: 207 M⁻¹ s⁻¹ | Ki [5]: 19.6 µM | Fold difference (with respect to CA) [6]: 8.7 | time-dependent inhibition of CYP2A6, result in words [6]: more potent inhibitors than t-CA
SMILES: CC(C=O)=Cc1ccccc1[N+](=O)[O-] [o-nitro-α-methyl-CA, 2-nitro-α-methylcinnamaldehyde]

kinact [3, 11]: 0.00237 s⁻¹ | kinact/KI [3, 11]: 45 M⁻¹ s⁻¹ | Ki [5]: 52.6 µM | Fold difference (with respect to CA) [6]: 1.9 | time-dependent inhibition of CYP2A6, result in words [6]: more potent inhibitors than t-CA
SMILES: O=CC=Cc1ccccc1C(F)(F)F [o-trifluoromethyl-CA, 2-trifluoromethylcinnamaldehyde]

SMILES: CCCCC/C(C=O)=C/c1ccccc1 [α-amyl-CA]
IC50 [8]: 65 µM | time-dependent inhibition of CYP2A6, result in words [6]: not to be time-dependent inhibitors

SMILES: O=C/C(Br)=C/c1ccccc1 [α-bromo-CA, α-bromocinnamaldehyde]
Log P [1]: 2.7 | AUC fold increase [10]: 1.35-1.84 | Kd [2]: 8.2 µM | kinact [3, 11]: 0.000283 s⁻¹ | kinact/KI [3, 11]: 7.83 M⁻¹ s⁻¹ | IC50 [4]: 2.8 µM | Ki [5]: 36.3 µM | kinact [6]: .017 min⁻¹ | kinact/kI [6]: 0.000463 | Fold difference (with respect to CA) [6]: 0.32 | time-dependent inhibition of CYP2A6, result in words [6]: less potency as compared to t-CA

Kd [9]: 36.8 µM | time-dependent inhibition of CYP2A6, result in words [6]: not to be time-dependent inhibitors
SMILES: CCCCC(C=O)=Cc1ccccc1 [α-butyl-CA]

AUC fold increase [10]: 2.44-4.22 | Kd [2]: 9.6 µM | kinact [3, 11]: 0.0025 s⁻¹ | kinact/KI [3, 11]: 733 M⁻¹ s⁻¹ | IC50 [4]: 3.3 µM | Ki [5]: 3.4 µM | kinact [6]: .15 min⁻¹ | kinact/kI [6]: 0.04399 | Fold difference (with respect to CA) [6]: 30.7 | Fold difference (with respect to CA) ([6]; listed as α-chloro-cinnamaldehyde): over 30
SMILES: O=CC(Cl)=Cc1ccccc1 [α-chloro-CA, α-chlorocinnamaldehyde]
time-dependent inhibition of CYP2A6, result in words [6]: substantially more potent time-dependent inhibitor of CYP2A6 than t-CA; also recorded: more potent inhibitors than t-CA

Kd [9]: 3 µM | time-dependent inhibition of CYP2A6, result in words [6]: not to be time-dependent inhibitors
SMILES: CCC(C=O)=Cc1ccccc1 [α-ethyl-CA]

time-dependent inhibition of CYP2A6, result in words [6]: not to be time-dependent inhibitors
SMILES: O=CC(F)=Cc1ccccc1 [α-fluoro-CA]

SMILES: CCCCCC/C(C=O)=C\c1ccccc1 [α-hexyl-CA]
IC50 [8]: 64.7 µM | time-dependent inhibition of CYP2A6, result in words [6]: not to be time-dependent inhibitors

Kd [9]: 3.2 µM | time-dependent inhibition of CYP2A6, result in words [6]: not to be time-dependent inhibitors
SMILES: CC(C)C(C=O)=Cc1ccccc1 [α-isopropyl-CA]

Kd [2]: 6.8 µM | IC50 [4]: 5.3 µM | time-dependent inhibition of CYP2A6, result in words [6]: not to be time-dependent inhibitors
SMILES: CC(C=O)=Cc1ccccc1 [α-methyl-CA, α-methyl-cinnamaldehyde]
time-dependent inhibition of CYP2A6, result in words ([6]; listed as α-methyl-cinnamaldehyde): not be a time-dependent inhibitor of CYP2A6

Kd [9]: 7.8 µM | time-dependent inhibition of CYP2A6, result in words [6]: not to be time-dependent inhibitors
SMILES: CCCC(C=O)=Cc1ccccc1 [α-propyl-CA]

IC50 [8]: 148 µM
SMILES: O=CC=C(c1ccccc1)c1ccccc1 [β-phenyl CA]
